Source: US12202829B2, “Heterocyclic compound” (FIMECS, Inc., priority 2018, dated 2025)
pIC50: −log10 of the molar value. Where a name gives a salt, the structure may show the parent alone.

Each molecule was assayed against T1, human XIAP_BIR3 domain purified protein (Homo sapiens, UniProt P98170) (assay: XIAP binding inhibitory activity, HTRF method with b-Smac ligand). Settings: second symbol of the cell; read-out: XIAP binding 50% inhibitory concentration (IC50 value).
T1 construct: purchased R & D
Method: Human XIAP binding inhibitory activity were measured by the Homogeneous Time Resolved Fluorescence (HTRF) method with using commercially available human XIAP_BIR3 domain purified protein (R & D) and as a ligand a Smac N-terminal peptide (AVPIAQK (SEQ ID NO: 1)) (hereinafter referred to as “b-Smac”; Peptide Research Laboratories, Inc.) biotinylated at the C-terminus according to a conventional method.
The HTRF method will be described in detail below. A test compound diluted with a reaction buffer was added to a 384-well white shallow bottom plate (Greiner 784076) at 1 μL/well and flash centrifuged for 30 seconds. Subsequently, human XIAP_BIR3 domain purified protein was diluted with the reaction buffer (25 mM HEPES Buffer containing 100 mM NaCl, 0.1% BSA, and 0.1% triton X-100, pH 7.5) to obtain a 90 nM sample diluent, and the resultant sample diluent was added to the above-mentioned white superficial plate at 4.5 μL/well and flash centrifuged for 30 seconds. Subsequently, b-Smac diluted to 90 nM with the reaction buffer was added to the above-mentioned white superficial plat at 4.5 μL/well and flash centrifuged for 30 seconds. A mixed solution of Anti-6 HIS-Cryptate (Eu3+Cryptate-conjugated mouse monoclonal antibody anti-6 Histidine; cisbio) and Streptavidin-XL^ent! (Highgrade XL665-conjugated streptavidin; cisbio) both diluted 100-fold with HTRF detection buffer (cisbio) at a volume ratio of 1:1 was added to the above white superficial plate at 10 μL/well. After flash centrifuging the white shallow bottom plate for 30 seconds, the white shallow bottom plate was left at room temperature for 4 hours or more in the dark. The white superficial plate after being left was subjected to fluorescence intensity measurement (excitation wavelength: 320 nm, fluorescence wavelength: 665 nm and 615 nm) by EnVision (Perkin Elmer).
The binding inhibition rate (%) was calculated based on the HTRF ratio in the presence of the test compound to the HTRF ratio in the absence of the test compound (fluorescence intensity at 665 nm/fluorescence intensity at 615 nm).

T1 sequence (P98170 252-356 limits assumed): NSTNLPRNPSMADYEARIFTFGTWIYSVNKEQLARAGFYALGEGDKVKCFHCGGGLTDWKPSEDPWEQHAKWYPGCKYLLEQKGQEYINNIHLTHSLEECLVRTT

`CN[C@@H](C)C(=O)N[C@H](C(=O)N1CCN(C(=O)c2cc3cc(F)c(F)cc3n2CCOCCOCc2ccccc2)CC1)C1CCCCC1` [Example 44, (S)—N—((S)-2-(4-(1-(2-(2-(Benzyloxy)ethoxy)ethyl)-5,6-difluoro-1H-indole-2-carbonyl)piperazin-1-yl)-1-cyclohexyl-2-oxoethyl)-2-(methylamino)propanamide] and `CN[C@@H](C)C(=O)N[C@H](C(=O)N1CCN(C(=O)c2cc3cc(F)c(F)cc3n2CCOCCO)CC1)C1CCCCC1` [Example 45, (S)—N—((S)-1-Cyclohexyl-2-(4-(5,6-difluoro-1-(2-(2-hydroxyethoxy)ethyl)-1H-indole-2-carbonyl)piperazin-1-yl)-2-oxoethyl)-2-(methylamino)propanamide] fall in the same range of pIC50: 4.52 to 5.52 for the first, 4.52 to 5.52 for the second.

Same assay, conditions: test compound 3 μM; first symbol of the cell; read-out: XIAP binding inhibition rate when the concentration of the test compound is 3 μM

First: CN[C@@H](C)C(=O)N[C@H](C(=O)N1CCN(C(=O)c2c(C(=O)NCCOC)c3ccc(OC)cc3n2C)CC1)C1CCCCC1 [Example 25, 2-(4-((S)-2-Cyclohexyl-2-((S)-2-(methylamino)propanamido)acetyl)piperazine-1-carbonyl)-6-methoxy-N-(2-methoxyethyl)-1-methyl-1H-indole-3-carboxamide Hydrochloride]
Second: CN[C@@H](C)C(=O)N[C@H](C(=O)N1CCN(C(=O)c2c(C(=O)N(C)CCOC)c3ccc(OC)cc3n2C)CC1)C1CCCCC1 [Example 26, 2-(4-((S)-2-Cyclohexyl-2-((S)-2-(methylamino)propanamido)acetyl)piperazine-1-carbonyl)-6-methoxy-N-(2-methoxyethyl)-N,1-dimethyl-1H-indole-3-carboxamide Hydrochloride]
The inhibition at 3 µM of the first is higher: over 75% for the first, 50 to 75% for the second.

First: CN[C@@H](C)C(=O)N[C@H](C(=O)N1CCN(C(=O)c2c(C(=O)NCC(=O)OC)c3ccc(OC)cc3n2C)CC1)C1CCCCC1 [Example 27, Methyl (2-(4-((S)-2-cyclohexyl-2-((S)-2-(methylamino)propanamido)acetyl)piperazine-1-carbonyl)-6-methoxy-1-methyl-1H-indole-3-carbonyl)glycinate Hydrochloride]
Second: CN[C@@H](C)C(=O)N[C@H](C(=O)N1CCN(C(=O)c2c(C(=O)N(C)CC(=O)OC)c3ccc(OC)cc3n2C)CC1)C1CCCCC1 [Example 28, Methyl N-(2-(4-((S)-2-cyclohexyl-2-((S)-2-(methylamino)propanamido)acetyl)piperazine-1-carbonyl)-6-methoxy-1-methyl-1H-indole-3-carbonyl)-N-methylglycinate Hydrochloride]
The inhibition at 3 µM of the first is higher: over 75% for the first, 50 to 75% for the second.

`CN[C@@H](C)C(=O)N[C@H](C(=O)N1CCN(C(=O)c2c(C(=O)N3CCC[C@H]3COC)c3ccc(OC)cc3n2C)CC1)C1CCCCC1` [Example 29, (S)—N—((S)-1-Cyclohexyl-2-(4-(6-methoxy-3-((S)-2-(methoxymethyl)pyrrolidine-1-carbonyl)-1-methyl-1H-indole-2-carbonyl)piperazin-1-yl)-2-oxoethyl)-2-(methylamino)propanamide Hydrochloride] and `CN[C@@H](C)C(=O)N[C@H](C(=O)N1CCN(C(=O)c2c(C(=O)N3CCC[C@@H]3COC)c3ccc(OC)cc3n2C)CC1)C1CCCCC1` [Example 30, (S)—N—((S)-1-Cyclohexyl-2-(4-(6-methoxy-3-((R)-2-(methoxymethyl)pyrrolidine-1-carbonyl)-1-methyl-1H-indole-2-carbonyl)piperazin-1-yl)-2-oxoethyl)-2-(methylamino)propanamide Hydrochloride] fall in the same range of inhibition at 3 µM: 50 to 75% for the first, 50 to 75% for the second.

`CN[C@@H](C)C(=O)N[C@H](C(=O)N1CCN(C(=O)c2c(C(=O)N3CC(OC)C3)c3ccc(OC)cc3n2C)CC1)C1CCCCC1` [Example 31, (S)—N—((S)-1-Cyclohexyl-2-(4-(6-methoxy-3-(3-methoxyazetidine-1-carbonyl)-1-methyl-1H-indole-2-carbonyl)piperazin-1-yl)-2-oxoethyl)-2-(methylamino)propanamide Hydrochloride] and `CN[C@@H](C)C(=O)N[C@H](C(=O)N1CCN(C(=O)c2c(C(=O)NCCOCCOCC(=O)O)c3ccc(OC)cc3n2C)CC1)C1CCCCC1` [Example 37, 2-(2-(2-(2-(4-((S)-2-Cyclohexyl-2-((S)-2-(methylamino)propanamido)acetyl)piperazine-1-carbonyl)-6-methoxy-1-methyl-1H-indole-3-carboxamido)ethoxy)ethoxy)acetic Acid Hydrochloride] fall in the same range of inhibition at 3 µM: 50 to 75% for the first, 50 to 75% for the second.

First: CN[C@@H](C)C(=O)N[C@H](C(=O)N1CCN(C(=O)c2cc3ccc(OC)cc3n2C)C[C@@H]1C)C1CCCCC1 [Example 32, (S)—N—((S)-1-Cyclohexyl-2-((S)-4-(6-methoxy-1-methyl-1H-indole-2-carbonyl)-2-methylpiperazin-1-yl)-2-oxoethyl)-2-(methylamino)propanamide Hydrochloride]
Second: CN[C@@H](C)C(=O)N[C@H](C(=O)N1CCN(C(=O)c2cc3ccc(OC)cc3n2C)[C@@H](C)C1)C1CCCCC1 [Example 33, (S)—N—((S)-1-Cyclohexyl-2-((S)-4-(6-methoxy-1-methyl-1H-indole-2-carbonyl)-3-methylpiperazin-1-yl)-2-oxoethyl)-2-(methylamino)propanamide Hydrochloride]
The inhibition at 3 µM of the first is lower: 50 to 75% for the first, over 75% for the second.

`CN[C@@H](C)C(=O)N[C@H](C(=O)N1CCN(C(=O)c2cc3ccc(OC)cc3n2C)[C@H](C)C1)C1CCCCC1` [Example 34, (S)—N—((S)-1-Cyclohexyl-2-((R)-4-(6-methoxy-1-methyl-1H-indole-2-carbonyl)-3-methylpiperazin-1-yl)-2-oxoethyl)-2-(methylamino)propanamide Hydrochloride] and `CN[C@@H](C)C(=O)N[C@H](C(=O)N1CCN(C(=O)c2cc3ccc(OC)cc3n2C)CC1)C1CCC(F)(F)CC1` [Example 42, (S)—N—((S)-1-(4,4-Difluorocyclohexyl)-2-(4-(6-methoxy-1-methyl-1H-indole-2-carbonyl)piperazin-1-yl)-2-oxoethyl)-2-(methylamino)propanamide Hydrochloride] cannot be ordered by inhibition at 3 µM: over 75% for the first, over 75% for the second.

`CN[C@@H](C)C(=O)N[C@H](C(=O)N1CCN(C(=O)c2c(C=O)c3cc(F)ccc3n2C)CC1)C1CCCCC1` [Example 35, (S)—N—((S)-1-Cyclohexyl-2-(4-(5-fluoro-3-formyl-1-methyl-1H-indole-2-carbonyl)piperazin-1-yl)-2-oxoethyl)-2-(methylamino)propanamide Hydrochloride] and `CN[C@@H](C)C(=O)N[C@H](C(=O)N1CCN(C(=O)c2c(/C=C/C(=O)OC)c3cc(F)ccc3n2C)CC1)C1CCCCC1` [Example 43, Methyl (E)-3-(2-(4-((S)-2-cyclohexyl-2-((S)-2-(methylamino)propanamido)acetyl)piperazine-1-carbonyl)-5-fluoro-1-methyl-1H-indol-3-yl)acrylate Hydrochloride] cannot be ordered by inhibition at 3 µM: over 75% for the first, over 75% for the second.

Compared with `COc1ccc2cc(C(=O)N3CCN(C(=O)CN4C[C@@H](C)NC[C@@H]4CN4CCOC[C@H]4C)CC3)n(C)c2c1` [Example 36, 1-(4-(6-Methoxy-1-methyl-1H-indole-2-carbonyl)piperazin-1-yl)-2-((2R,5R)-5-methyl-2-(((R)-3-methylmorpholino)methyl)piperazin-1-yl)ethan-1-one], `COc1ccc2cc(C(=O)N3CCN(C(=O)CN4C[C@@H](C)NC[C@@H]4CO)CC3)n(C)c2c1` [Example 39, 2-((2R,5R)-2-(Hydroxymethyl)-5-methylpiperazin-1-yl)-1-(4-(6-methoxy-1-methyl-1H-indole-2-carbonyl)piperazin-1-yl)ethan-1-one hydrochloride] is lower in inhibition at 3 µM: over 75% for the first, 50 to 75% for the second.

`CN[C@@H](C)C(=O)N[C@H](C(=O)N1CCN(C(=O)c2c(C(=O)NCCOCCOCCNC(=O)OCC3c4ccccc4-c4ccccc43)c3ccc(OC)cc3n2C)CC1)C1CCCCC1` [Example 38, (9H-Fluoren-9-yl)methyl (2-(2-(2-(2-(4-((S)-2-cyclohexyl-2-((S)-2-(methylamino)propanamido)acetyl)piperazine-1-carbonyl)-6-methoxy-1-methyl-1H-indole-3-carboxamido)ethoxy)ethoxy)ethyl)carbamate Hydrochloride] and `CN[C@@H](C)C(=O)N[C@H](C(=O)N1CCN(C(=O)c2cc3cc(F)c(F)cc3n2C)CC1)C1CCCCC1` [Example 41, (S)—N—((S)-1-Cyclohexyl-2-(4-(5,6-difluoro-1-methyl-1H-indole-2-carbonyl)piperazin-1-yl)-2-oxoethyl)-2-(methylamino)propanamide] cannot be ordered by inhibition at 3 µM: over 75% for the first, over 75% for the second.

Molecule `COc1ccc2cc(C(=O)N3CCN(C(=O)CN4C[C@@H](C)NC[C@@H]4CN(C)CCOCCO)CC3)n(C)c2c1` [Example 40, 2-((2R,5R)-2-(((2-(2-Hydroxyethoxy)ethyl) (methyl)amino)methyl)-5-methylpiperazin-1-yl)-1-(4-(6-methoxy-1-methyl-1H-indole-2-carbonyl)piperazin-1-yl)ethan-1-one Hydrochloride] has an inhibition at 3 µM of over 75%.
